# In ChEMBL document CHEMBL1201862, “PubChem BioAssay data set” (2004):
# Activity calls are given as the source filed them.
# Tests used:
# Bcl-2-related protein A1 = target: T1, Bcl-2-related protein A1 (Mus musculus, UniProt Q07440); format: functional;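 note: confirmatory dose–response counterscreen on Bfl-1, used to check hits from a UBC13 polyubiquitin inhibitor campaign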
# T1 sequence (Q07440 whole entry): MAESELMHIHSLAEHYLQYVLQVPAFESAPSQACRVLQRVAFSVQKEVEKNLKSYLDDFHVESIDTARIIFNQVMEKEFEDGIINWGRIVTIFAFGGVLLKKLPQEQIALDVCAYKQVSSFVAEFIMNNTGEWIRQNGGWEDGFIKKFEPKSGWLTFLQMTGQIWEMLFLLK
# [1] = target: T2, Ubiquitin-conjugating enzyme E2 N (Homo sapiens, UniProt P61088); format: functional
# T2 sequence (P61088 whole entry): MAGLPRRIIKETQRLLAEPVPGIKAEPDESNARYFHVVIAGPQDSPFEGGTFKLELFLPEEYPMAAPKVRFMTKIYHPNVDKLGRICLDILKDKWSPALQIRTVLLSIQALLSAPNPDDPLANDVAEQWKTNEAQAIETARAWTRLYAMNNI
# [2] = target: T2, Ubiquitin-conjugating enzyme E2 N; format: functional; remark: listed apart in the source
# [3] = target: T3, Heat shock factor protein 1 (Mus musculus, UniProt P38532); test: decrease of HSF1-responsive luciferase luminescence – cell-based, NIH3T3, dose retest, confirmation (AID 2382); format: functional;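 note: NIH3T3 fibroblasts with HSF1-driven luciferase reporter stressed by proteasome inhibitor MG132; luminescence from HSF1-driven luciferase expression after 8 hours of MG132 stress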
# T3 sequence (P38532 whole entry): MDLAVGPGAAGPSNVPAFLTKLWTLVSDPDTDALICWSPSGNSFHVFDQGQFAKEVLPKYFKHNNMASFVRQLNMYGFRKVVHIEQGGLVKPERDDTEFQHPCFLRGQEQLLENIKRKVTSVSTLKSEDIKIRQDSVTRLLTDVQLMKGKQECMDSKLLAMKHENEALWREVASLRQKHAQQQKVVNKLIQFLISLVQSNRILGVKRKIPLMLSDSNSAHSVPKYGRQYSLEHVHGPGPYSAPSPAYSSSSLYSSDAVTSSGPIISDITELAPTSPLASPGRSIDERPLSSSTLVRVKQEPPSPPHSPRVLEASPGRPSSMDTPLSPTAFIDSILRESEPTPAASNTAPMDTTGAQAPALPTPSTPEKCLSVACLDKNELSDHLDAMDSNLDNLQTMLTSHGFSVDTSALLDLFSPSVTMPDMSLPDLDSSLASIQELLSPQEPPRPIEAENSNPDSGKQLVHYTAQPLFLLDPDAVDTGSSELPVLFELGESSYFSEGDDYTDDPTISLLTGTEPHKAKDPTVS
# [4] = Luminescence Cell-Based Dose Retest to Confirm Inhibitors of Cancer Stem Cells. [Related pubchem assays (depositor defined):AID2717, AID2721]; format: functional; conditions: Homo sapiens
# [5] = toxicity toward cultured mammalian cells – cell-based, plate reader, cherry-pick samples, cytotoxicity control, dose response (AID 504397); format: functional
# [6] = A Cell Based Secondary Assay To Explore Cytotoxicity of Compounds that Sensitize Mycobacterium Tuberculosis to Beta-Lactam Antibiotics.; format: functional
# [7] = target: T4, G-protein coupled receptor 55 (Homo sapiens, UniProt Q9Y2T6); test: inhibition of LPI-stimulated GPR55 beta-arrestin translocation – imaging, U2OS, beta-arrestin-GFP, LPI agonist, primary screen (AID 2013); format: functional;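 note: antagonist potency measured as reduced agonist-driven arrestin aggregation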
# [8] = Trypanosoma cruzi growth suppression in host cells – NIH3T3 host cells, beta-gal luminescence, confirmation (AID 2044); format: functional, cell-based;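 note: intracellular parasites grown in NIH/3T3 mouse fibroblasts as host cells; luminescent beta-galactosidase reporter signal from transgenic T. cruzi replicating inside host cells; inhibitors lower the luminescence signal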
# [9] = viability of PTEN-deleted HCT116 cells – cell-based, HCT116 PTEN knockout, dose response (AID 1047); format: functional;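 note: HCT116 colon tumor cells with PTEN knocked out; cells exposed to compound for 60 hours before readout; potency for loss of cell viability measured by luminescence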
# [10] = NIH3T3 cell viability loss – ATP luminescence, mouse fibroblasts, counter-screen, dose response (AID 2010); format: functional, cell-based;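 note: cells exposed to compound for about 90 hours before reading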
# [11] = viability of HCT116 lacking mutant beta-catenin – cell-based, human colon tumor, dose response (AID 1045); format: functional;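 note: HCT116 colon tumor cells with beta catenin knocked out; cells exposed to compound for 60 hours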
# Cannabinoid receptor 1 [12] = target: T5, Cannabinoid receptor 1 (Homo sapiens, UniProt P21554); test: SAR analysis of antagonists of the Cannabinoid Receptor 1 using an Image-Based Assay - Set 2. [Related pubchem assays (depositor defined):AID2013, AID2026]; format: functional
# [13] = target: T6, G-protein coupled receptor 35 (Homo sapiens, UniProt Q9HC97); test: SAR analysis of Agonists of the GPR35 Receptor using an Image-Based Assay - Set 2. [Related pubchem assays (depositor defined):AID2013, AID2026]; format: functional
# Cannabinoid receptor 2 [14] = target: T7, Cannabinoid receptor 2 (Homo sapiens, UniProt P34972); test: SAR analysis of antagonists of the Cannabinoid Receptor 2 using an Image-Based Assay. [Related pubchem assays (depositor defined):AID2013, AID2026]; format: functional
# Cannabinoid receptor 1 [15] = target: T5, Cannabinoid receptor 1; test: SAR analysis of agonists of the Cannabinoid Receptor 1 using an Image-Based Assay - Set 2. [Related pubchem assays (depositor defined):AID2013, AID2026]; format: functional
# [16] = target: T6, G-protein coupled receptor 35; test: SAR analysis of Antagonists of the GPR35 Receptor using an Image-Based Assay - Set 3. [Related pubchem assays (depositor defined):AID2013, AID2026]; format: functional
# [17] = target: T4, G-protein coupled receptor 55; test: blockade of LPI-induced GPR55 arrestin translocation – imaging, U2OS, beta-arrestin-GFP, LPI agonist, set 2, SAR follow-up (AID 2820); format: functional
# Cannabinoid receptor 2 [18] = target: T7, Cannabinoid receptor 2; test: SAR analysis of agonists of the Cannabinoid Receptor 2 using an Image-Based Assay. [Related pubchem assays (depositor defined):AID2013, AID2026]; format: functional
# Cytochrome P450 2C9 = Cytochrome P450 2C9 (Homo sapiens, UniProt P11712)
# Sequence of Cytochrome P450 2C9 (P11712 whole entry): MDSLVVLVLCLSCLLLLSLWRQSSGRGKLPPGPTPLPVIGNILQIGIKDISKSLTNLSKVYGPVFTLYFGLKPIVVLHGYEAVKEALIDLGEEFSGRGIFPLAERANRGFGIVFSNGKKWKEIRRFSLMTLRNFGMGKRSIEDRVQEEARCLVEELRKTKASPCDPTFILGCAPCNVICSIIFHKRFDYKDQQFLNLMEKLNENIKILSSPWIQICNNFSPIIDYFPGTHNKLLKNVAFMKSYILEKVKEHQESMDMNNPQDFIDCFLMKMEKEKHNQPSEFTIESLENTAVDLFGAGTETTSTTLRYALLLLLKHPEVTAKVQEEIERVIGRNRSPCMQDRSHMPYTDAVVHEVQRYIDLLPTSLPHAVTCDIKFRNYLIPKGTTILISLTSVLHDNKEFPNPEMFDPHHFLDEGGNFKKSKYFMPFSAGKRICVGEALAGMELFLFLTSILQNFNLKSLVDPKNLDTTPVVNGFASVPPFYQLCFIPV
# T4 sequence (Q9Y2T6 whole entry): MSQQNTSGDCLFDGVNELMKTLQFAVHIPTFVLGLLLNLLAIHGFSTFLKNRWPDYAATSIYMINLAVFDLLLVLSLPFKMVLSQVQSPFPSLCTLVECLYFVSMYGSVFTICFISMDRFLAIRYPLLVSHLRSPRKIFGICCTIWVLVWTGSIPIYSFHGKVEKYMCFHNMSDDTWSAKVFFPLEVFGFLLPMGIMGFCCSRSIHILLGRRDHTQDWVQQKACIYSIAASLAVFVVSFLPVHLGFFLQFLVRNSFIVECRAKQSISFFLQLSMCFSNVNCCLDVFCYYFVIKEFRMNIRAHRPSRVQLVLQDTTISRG
# T5 sequence (P21554 whole entry): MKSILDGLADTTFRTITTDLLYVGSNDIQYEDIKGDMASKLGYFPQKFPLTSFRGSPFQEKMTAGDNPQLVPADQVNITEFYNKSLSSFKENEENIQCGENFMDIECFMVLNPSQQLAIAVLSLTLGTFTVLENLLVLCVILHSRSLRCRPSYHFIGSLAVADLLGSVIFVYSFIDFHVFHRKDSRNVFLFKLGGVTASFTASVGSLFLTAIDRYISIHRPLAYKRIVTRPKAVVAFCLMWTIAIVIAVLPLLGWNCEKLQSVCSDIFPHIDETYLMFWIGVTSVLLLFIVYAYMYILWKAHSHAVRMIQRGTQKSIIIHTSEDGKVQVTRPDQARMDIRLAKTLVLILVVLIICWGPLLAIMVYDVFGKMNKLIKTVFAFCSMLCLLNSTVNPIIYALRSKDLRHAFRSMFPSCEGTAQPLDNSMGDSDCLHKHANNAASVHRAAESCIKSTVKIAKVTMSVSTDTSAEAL
# T6 sequence (Q9HC97 whole entry): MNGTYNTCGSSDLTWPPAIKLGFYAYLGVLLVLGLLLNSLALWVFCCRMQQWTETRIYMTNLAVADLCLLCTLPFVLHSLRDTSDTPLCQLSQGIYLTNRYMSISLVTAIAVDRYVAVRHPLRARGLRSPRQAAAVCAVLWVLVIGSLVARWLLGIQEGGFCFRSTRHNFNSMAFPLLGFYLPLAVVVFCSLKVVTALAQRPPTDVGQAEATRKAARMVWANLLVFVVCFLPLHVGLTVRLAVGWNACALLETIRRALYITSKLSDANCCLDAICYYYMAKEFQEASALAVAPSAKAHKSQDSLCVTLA
# T7 sequence (P34972 whole entry): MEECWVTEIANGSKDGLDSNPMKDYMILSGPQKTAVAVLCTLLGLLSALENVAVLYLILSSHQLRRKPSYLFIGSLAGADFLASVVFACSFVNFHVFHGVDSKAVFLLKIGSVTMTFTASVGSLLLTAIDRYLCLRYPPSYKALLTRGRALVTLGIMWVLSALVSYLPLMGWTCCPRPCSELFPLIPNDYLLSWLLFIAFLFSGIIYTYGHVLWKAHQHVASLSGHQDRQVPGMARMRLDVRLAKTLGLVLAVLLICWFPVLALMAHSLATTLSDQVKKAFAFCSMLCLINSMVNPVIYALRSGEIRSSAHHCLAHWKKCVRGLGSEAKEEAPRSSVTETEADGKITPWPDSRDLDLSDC
compound,measurement,setting,value
C/C(=N\NC(=O)CSCc1ccc([N+](=O)[O-])cc1)c1ccccc1,IC50,Bcl-2-related protein A1,> 20 µM (inactive)
same,IC50,[1],6.86 µM (active)
same,IC50,[2],4.9 µM (active)
c1ccc(CNc2nc(N3CCN(Cc4ccccc4)CC3)nc3ccccc23)cc1,EC50,[3],> 195 µM (not active)
same,AC50,[4],3.43 µM (active)
same,AC50,[5],66.2 µM (active)
CC(C)(C)NS(=O)(=O)c1ccc(NC(=O)C(Sc2ccccc2)c2ccccc2)cc1 (stereo not given),CC50,[6],27.1 µM (active)
same,IC50,[7],0.678 µM (active)
same,EC50,[8],2.31 µM (active)
same,EC50,[9],14.5 µM (active)
same,EC50,[10],> 60 µM (not active)
same,EC50,[11],14.7 µM (active)
same,IC50,Cannabinoid receptor 1 [12],2.71 µM (active)
same,EC50,[13],> 32 µM (inactive)
same,IC50,Cannabinoid receptor 2 [14],> 32 µM (inactive)
same,EC50,Cannabinoid receptor 1 [15],> 32 µM (inactive)
same,IC50,[16],> 32 µM (inactive)
same,IC50,[17],0.978 µM (active)
same,EC50,Cannabinoid receptor 2 [18],> 32 µM (inactive)
same,AC50,Cytochrome P450 2C9,2 µM (inconclusive)
